# Patent publication US20140100156A1 (SANOFI, priority 2012, published 2014)
# How the values were obtained:
# Format in all cases: in vivo
# [1] = test system: female leptin-receptor deficient diabetic db/db mice; assay: Acute effect on blood glucose in fed female db/db mice
# From the text: Female BKS.Cg-m+/+Leprdb/J (db/db) and BKS.Cg-m+/+Leprdb/+ (lean control) mice were obtained from Charles River Laboratories, Germany, at an age of 9-10 weeks. The animals were housed in groups in a specific pathogen-free barrier facility on a 12-h light/dark cycle with free access to water and rodent-standard chow. After 1 week of acclimatization, blood samples were drawn from the tail without anaesthesia and blood glucose (method: d-glucose hexokinase, hemolysate, AU640 Beckman Coulter) and HbA1c level (method: hemolysate, Cobas6000 c501, Roche Diagnostics, Germany) were determined.
# Db/db mice were stratified to treatment groups (n=8), so that each group had similar baseline blood glucose and HbA1c levels.
# 1) Acute effect on blood glucose in fed db/db mice: initial blood samples were taken just before first administration (s.c.) of vehicle (phosphate buffer solution) or exendin-4 derivatives at doses of 3, 10, and 100 μg/kg (dissolved in phosphate puffer), respectively. The volume of administration was 5 mL/kg. The animals had access to water and chow during the experiment, food consumption was determined at all time points of blood sampling. Blood glucose levels were measured at t=0.5 h, t=1 h, t=2 h, t=4 h, t=6 h, t=8 h, and t=24 h. Blood sampling was performed by tail incision without anaesthesia.
# (§1) Statistical analyses were performed with Everstat 6.0 by repeated measures two-way ANOVA and Dunnetts post-hoc analyses. Differences versus vehicle-treated db/db control mice were considered statistically significant at the p<0.05 level.
# After blood sampling to determine the blood glucose baseline level, fed diabetic female db/db mice were administered 3, 10 or 100 μg/kg of SEQ ID NO: 97 or phosphate buffered solution (vehicle-treated db/db control) subcutaneously. At predefined time points, more blood samples were taken to measure blood glucose and generate the blood glucose profile over 24 h. […]
# female NMRI-mice [2] = assay: Gastric emptying and intestinal passage in mice
# Procedure: Female NMRI-mice of a body weight between 20 and 30 g were used. Mice were adapted to housing conditions for at least one week.
# Mice were overnight fasted, while water remained available all the time. On the study day, mice were weighed, single-caged and allowed access to 500 mg of feed for 30 min, while water was removed. At the end of the 30 min feeding period, remaining feed was removed and weighed. 60 min later, a coloured, non-caloric bolus was instilled via gavage into the stomach. The test compound/reference compound or its vehicle in the control group was administered subcutaneously, to reach Cmax when coloured bolus was administered. After another 30 min, the animals were sacrificed and the stomach and the small intestine prepared. The filled stomach was weighed, emptied, carefully cleaned and dried and reweighed. The calculated stomach content indicated the degree of gastric emptying. The small intestine was straightened without force and measured in length. Then the distance from the gastric beginning of the gut to the tip of the farthest travelled intestinal content bolus was measured. The intestinal passage was given as relation in percent of the latter distance and the total length of the small intestine.
# Statistical analyses were performed with Everstat 6.0 by 1-way-ANOVA, followed by Dunnetts or Newman-Keuls as post-hoc test, respectively. Differences were considered statistically significant at the p<0.05 level. As post hoc test Dunnet's Test was applied to compare versus vehicle control, only. Newman-Keul's Test was applied for all pairwise comparisons (i.e. versus vehicle and reference groups).
# 30 min later, the assessment of stomach contents and intestinal passage was done (FIG. 1a, b).
# In another study, female NMRI-mice, weighing on average 25-30 g, were administered subcutaneously 0.02 and 0.002 mg/kg of SEQ ID NO: 97 or phosphate buffered saline (vehicle control), 30 min prior to the administration of the coloured bolus. 30 min later, the assessment of stomach contents and intestinal passage was done (FIG. 1c, d).
# female NMRI-mice [3] = assay: Automated assessment of feed intake in mice; conditions: 22 hours
# Procedure: Female NMRI-mice of a body weight between 20 and 30 g were used. Mice were adapted to housing conditions for at least one week and for at least one day single-caged in the assessment equipment, when basal data were recorded simultaneously. On the study day, test product was administered subcutaneously close to the lights-off phase (12 h lights off) and assessment of feed consumption was directly started afterwards. Assessment included continued monitoring (every 30 min) over 22 hours. Repetition of this procedure over several days was possible. Restriction of assessment to 22 hours was for practical reasons to allow for reweighing of animals, refilling of feed and water and drug administration between procedures. Results could be assessed as cumulated data over 22 hours or differentiated to 30 min intervals.
# Statistical analyses were performed with Everstat 6.0 by two-way ANOVA on repeated measures and Dunnetts post-hoc analyses. Differences were considered statistically significant at the p<0.05 level.
# Fed female NMRI-mice, weighing on average 25-30 g, were administered 0.01 or 0.1 mg/kg of SEQ ID NO: 97 or phosphate buffered saline (vehicle control) subcutaneously, directly prior to start of feeding monitoring (time=0 h). Lights-off phase (dark phase) started 4 hours later.
# [4] = Subchronic effect on body weight and body fat in female DIO C57BL/6NCrl mice; conditions: 4 weeks, mean
# Procedure: Female C57BL/6NCrl mice were housed in groups in a specific pathogen-free barrier facility on a 12-h light/dark cycle with free access to water and high-fat diet. After 10 months on high-fat diet, mice were stratified to treatment groups (n=8), so that each group had similar mean body weight.
# 2) Subchronic effect on body weight: all animals were treated once daily s.c. in the morning, at the beginning of the light phase (12 h lights on) with either vehicle or exendin-4 derivatives at the abovementioned doses for 4 weeks. Body weight was recorded daily. On days 6 and 28, total fat mass was measured by nuclear magnetic resonance (NMR) using a Bruker minispec (Ettlingen, Germany).
# as §1, with “analyses (glucose profile) and 1-way-ANOVA, followed by Dunnetts post-hoc test (body weight, body fat).” for “analyses.”, “DIO” for “db/db”
# Female obese C57BL/6NCrl mice were treated for 4 weeks once daily subcutaneously in the morning, at the beginning of the light phase (12 h lights on) with 3, 10 or 100 μg/kg SEQ ID NO: 97 or vehicle. Body weight was recorded daily, and body fat content was determined before the start of treatment and after 4 weeks of treatment.
# [5] = 0.002 mg/kg s.c., versus PBS-control (second study)
# [6] = 0.02 mg/kg s.c., study with reference compound Liraglutide, versus vehicle
# [7] = 0.02 mg/kg s.c., versus PBS-control (second study)
substance,measurement,setting,value
"SEQ ID NO: 97: exendin-4 derivative, K(γE-x53) in position 14 (HXQGTFTSDLSKQKDSRRAQDFIEWLKNGGPSSGAPPPS; K14 side chain γE-x53; Exendin-4-analogue)",duration of decrease in blood glucose compared to db/db control mice,[1]; high dose (100 μg/kg s.c.),> 24 h
same,duration of decrease in blood glucose compared to db/db control mice,[1]; low dose (3 μg/kg s.c.),up to 8 h
same,duration of decrease in blood glucose compared to db/db control mice,[1]; medium dose (10 μg/kg s.c.),up to 8 h
same,gastric content increased by,female NMRI-mice [2]; [5],47%
same,intestinal passage reduced by,female NMRI-mice [2]; [5],63%
same,gastric content increased by,female NMRI-mice [2]; [6],90%
same,intestinal passage reduced by,female NMRI-mice [2]; [6],67%
same,gastric content increased by,female NMRI-mice [2]; [7],37%
same,intestinal passage reduced by,female NMRI-mice [2]; [7],43%
same,reduction of feed intake at the end of the study,female NMRI-mice [3]; 0.01 mg/kg s.c.,23%
same,reduction of feed intake at the end of the study,female NMRI-mice [3]; 0.1 mg/kg s.c.,66%
same,Body fat change,[4]; 3 μg/kg s.c. once daily,-0.5 g
same,Overall weight change,[4]; 3 μg/kg s.c. once daily,-0.9 g
same,Body fat change,[4]; 10 μg/kg s.c. once daily,-2.5 g
same,Overall weight change,[4]; 10 μg/kg s.c. once daily,-3.0 g
same,Body fat change,[4]; 100 μg/kg s.c. once daily,-2.4 g
same,Overall weight change,[4]; 100 μg/kg s.c. once daily,-2.3 g
